Article doi:10.1101/2023.11.08.566240v2, “Divergent Protein Kinase A contributes to the regulation of flagellar waveforms in Leishmania mexicana” (biorxiv, 2025)

Target: T1, LmxPKAR1-LmxPKAC1 (mNG::PKAC1) (Leishmania mexicana, UniProt E9AP50)
T1 construct: gene LMXM_13_0160; with protein kinase A catalytic subunit isoform 1
T1 sequence (E9AP50 1-503): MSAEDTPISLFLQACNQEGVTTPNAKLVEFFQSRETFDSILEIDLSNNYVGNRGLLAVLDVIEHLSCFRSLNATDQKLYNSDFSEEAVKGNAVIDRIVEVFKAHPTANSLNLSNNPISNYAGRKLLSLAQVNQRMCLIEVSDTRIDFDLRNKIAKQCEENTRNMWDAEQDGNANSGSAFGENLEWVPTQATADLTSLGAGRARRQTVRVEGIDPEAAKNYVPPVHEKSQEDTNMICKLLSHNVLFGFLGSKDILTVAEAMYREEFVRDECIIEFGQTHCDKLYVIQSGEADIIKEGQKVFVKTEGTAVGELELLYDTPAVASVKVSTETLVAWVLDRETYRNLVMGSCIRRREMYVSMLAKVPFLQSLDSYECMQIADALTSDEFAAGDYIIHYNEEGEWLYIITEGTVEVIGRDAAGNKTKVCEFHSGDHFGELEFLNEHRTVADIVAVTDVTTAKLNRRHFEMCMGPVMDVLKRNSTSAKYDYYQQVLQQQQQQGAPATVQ
T1 sequence (E9B6S9 1-371 partner): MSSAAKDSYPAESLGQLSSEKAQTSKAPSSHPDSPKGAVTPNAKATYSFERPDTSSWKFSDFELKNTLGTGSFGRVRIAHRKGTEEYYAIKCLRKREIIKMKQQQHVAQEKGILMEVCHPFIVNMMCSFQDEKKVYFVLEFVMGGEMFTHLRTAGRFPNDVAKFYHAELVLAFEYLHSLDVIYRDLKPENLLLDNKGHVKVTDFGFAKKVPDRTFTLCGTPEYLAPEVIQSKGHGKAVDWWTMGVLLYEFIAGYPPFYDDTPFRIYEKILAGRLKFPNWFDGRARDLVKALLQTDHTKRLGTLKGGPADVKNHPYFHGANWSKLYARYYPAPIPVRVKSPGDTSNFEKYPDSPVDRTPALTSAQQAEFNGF
Assay: release of mNG::PKAC1 fluorescence from flagellar cytoskeletons, microscopy
Type: biochemical
Settings: indirect assay of PKAR1 activation; detergent-extracted cytoskeletons in PEME buffer; 10 nM to 10 µM inosine

For `OC[C@H]1O[C@@H](n2cnc3c(O)ncnc32)[C@H](O)[C@@H]1O` [inosine], the EC50 was ~9 nM.
